From patent US20250129088A1, “CEREBLON E3 UBIQUITIN LIGASE INHIBITOR” (Gan & Lee Pharmaceuticals Co., Ltd., priority 2022, published 2025) come the findings set out here.

Broadly, the IC50 is the concentration that gives 50% inhibition. Higher therefore signals weaker potency in that assay.

Holding throughout (format): cell-based
One test relates to MV-4-11 cells. The experiment in a line: MV-4-11 cell proliferation inhibition, CCK-8. The note with it: Homo sapiens, MV4-11, 96 h, MV-4-11, 4 days. As to the method:
The complete medium required for MV-4-11 cells is IMDM (ATCC, Product number: 30-2005) basal medium containing 10% fetal bovine serum. MV-4-11 cells were seeded in a 96-well plate at a density of 7,500 cells/well, and different concentrations of the compound of the present invention and positive control samples Alisertib (source: Bide Pharmaceuticals), Palbociclib (source: Bide Pharmaceuticals), Ibrutinib (source Bide Pharmaceuticals) treated cells. The cells were incubated in a 37° C., 5% CO2 cell incubator for 4 days. Cell viability was detected using the CCK-8 kit (Beyotime, Product number: C0040) according to the manufacturer's instructions. According to the inhibition rate, GraphPad Prism software was used to calculate the IC50 value of each compound for 4 days, and the results are shown in Table 6-8.

Another test relates to VCaP cells. Nature of the test: VCaP cell proliferation inhibition, CCK-8. The conditions noted are these: Homo sapiens, 168 h, 7 days. An excerpt: The complete medium required for VCaP cells is DMEM high glucose (Gibco, Product number: 11995-065) basal medium containing 10% fetal bovine serum. […] Cell viability was detected using the CCK-8 kit (Beyotime, Product number: C0040) according to the manufacturer's instructions.

A further test deals with LNCaP FGC cells. Nature of the test: LNCaP FGC cell proliferation inhibition, CCK-8. The note with it: Homo sapiens, 96 h, 4 days. An excerpt: The complete medium required for LNCaP FGC cells is RPMI 1640 (ATCC, Product number: 30-2001) basal medium containing 10% fetal calf serum. […] Cell viability was detected using the CCK-8 kit (Beyotime, Product number: C0040) according to the manufacturer's instructions.

Where [1] appears, read: Table 6, positive control Alisertib.
The mark [2] stands for this setting: Table 7, positive control Palbociclib.

With `COc1cc(Nc2ncc3c(n2)-c2ccc(Cl)cc2C(c2c(F)cccc2OC)=NC3)ccc1C(=O)N1CCC2(CC1)COc1cc3c(cc1O2)CN(C1CCC(=O)NC1=O)C3=O` (stereo not shown) [PROTAC 2, 3-(1-(4-((9-chloro-7-(2-fluoro-6-methoxyphenyl)-5H-benzo[c]pyrimido[4,5-e]azepine-2-yl)amino)-2-methoxybenzoyl)-6′-oxo-6′,8′-dihydro-3′H,7′H-spiro[piperidine-4,2′-[1,4]dioxino[2,3-f]isoindole]-7′-yl)piperidine-2,6-dione], the half-inhibitory concentration (IC50) with MV-4-11 cells (setting [1]) was 81 nM.

In the test with MV-4-11 cells (setting [1]), `COc1cc(Nc2ncc3c(n2)-c2ccc(Cl)cc2C(c2c(F)cccc2OC)=NC3)ccc1C(=O)NCCOCCC(=O)N1CCC2(CCc3cc4c(cc3O2)C(=O)N(C2CCC(=O)NC2=O)C4=O)CC1` (stereo not shown) [PROTAC 5, 4-((9-chloro-7-(2-fluoro-6-methoxyphenyl)-5H-benzo[c]pyrimido[4,5-e]azepine-2-yl)amino)-N-(2-(3-(7′-(2,6-dioxopiperidin-3-yl)-6′,8′-dioxo-4′,6′,7′,8′-tetrahydro-3′H-spiro[piperidine-4,2′-pyrano[2,3-f]isoindol]-1-yl)-3-oxopropoxy)ethyl)-2-methoxybenzamide] had an IC50 of 420 nM.

`COc1cc(Nc2ncc3c(n2)-c2ccc(Cl)cc2C(c2c(F)cccc2OC)=NC3)ccc1C(=O)NCCOCCC(=O)N1CCC2(CC1)COc1cc3c(cc1C2)C(=O)N(C1CCC(=O)NC1=O)C3=O` (stereo not shown) [PROTAC 6, 4-((9-chloro-7-(2-fluoro-6-methoxyphenyl)-5H-benzo[c]pyrimido[4,5-e]azepine-2-yl)amino)-N-(2-(3-(7′-(2,6-dioxopiperidin-3-yl)-6′,8′-dioxo-4′,6′,7′,8′-tetrahydro-2′H-spiro[piperidine-4,3′-pyrano[2,3-f]isoindol]-1-yl)-3-oxopropoxy)ethyl)-2-methoxybenzamide] displayed an IC50 in the test on MV-4-11 cells (setting [1]) of 320 nM.

As for `COc1cc(Nc2ncc3c(n2)-c2ccc(Cl)cc2C(c2c(F)cccc2OC)=NC3)ccc1C(=O)NCCOCCC(=O)N1CC2(CCc3cc4c(cc3O2)C(=O)N(C2CCC(=O)NC2=O)C4=O)C1` (stereo not shown) [PROTAC 8, 4-((9-chloro-7-(2-fluoro-6-methoxyphenyl)-5H-benzo[c]pyrimido[4,5-e]azepine-2-yl)amino)-N-(2-(3-(7′-(2,6-dioxopiperidin-3-yl)-6′,8′-dioxo-4′,6′,7′,8′-tetrahydro-3′H-spiro[azetidine-3,2′-pyrano[2,3-f]isoindol]-1-yl)-3-oxopropoxy)ethylbase)-2-methoxybenzamide], inhibition in the test on MV-4-11 cells (setting [1]) was half-maximal at 380 nM (IC50). This IC50 and that of the compound before are within 1.5-fold of each other.

`CC(=O)c1c(C)c2cnc(Nc3ccc(N4CCN(CCOCCC(=O)N5CCC6(CCc7cc8c(cc7O6)C(=O)N(C6CCC(=O)NC6=O)C8=O)CC5)CC4)cn3)nc2n(C2CCCC2)c1=O` (stereo not shown) [PROTAC 38, 1-(3-(2-(4-(6-((6-acetyl-8-cyclopentyl-5-methyl-7-oxo-7,8-dihydropyridone[2,3-d]pyrimidin-2-yl)amino)pyridin-3-yl)piperazin-1-yl)ethoxy)propionyl)-7′-(2,6-dioxopiperidin-3-yl)-3′,4′-dihydro-6′H-spiro[piperidine-4,2′-pyrano[2,3-f]isoindole]-6′,8′(7′H)-dione]: the IC50 in the test with MV-4-11 cells (setting [2]) was 5030 nM.

Regarding `N#Cc1ccc(O[C@H]2CC[C@H](NC(=O)c3ccc(N4CCC(CN5CC6(CCc7cc8c(cc7O6)C(=O)N(C6CCC(=O)NC6=O)C8=O)C5)CC4)nn3)CC2)cc1Cl` (stereo partly shown) [PROTAC 60], the IC50 in the test on VCaP cells was found to be 1200 nM; with LNCaP FGC cells, 930 nM.

As to `N#Cc1ccc(O[C@H]2CC[C@H](NC(=O)c3ccc(N4CCC5(CC4)CC(N4CCC6(CCc7cc8c(cc7O6)C(=O)N(C6CCC(=O)NC6=O)C8=O)CC4)C5)nn3)CC2)cc1Cl` (stereo partly shown) [PROTAC 61], the IC50 in the test on VCaP cells is 80 nM; in the test on LNCaP FGC cells, 2200 nM.

As for `N#Cc1ccc(O[C@H]2CC[C@H](NC(=O)c3ccc(N4CC(N5CCC6(CCc7cc8c(cc7O6)CN(C6CCC(=O)NC6=O)C8=O)CC5)C4)nn3)CC2)cc1Cl` (stereo partly shown) [PROTAC 62], the IC50 is 100 nM with VCaP cells and 1160 nM in the test with LNCaP FGC cells.

On to `N#Cc1ccc(O[C@H]2CC[C@H](NC(=O)c3ccc(N4CCC5(CC4)CC(N4CCC6(CC4)COc4cc7c(cc46)C(=O)N(C4CCC(=O)NC4=O)C7=O)C5)nn3)CC2)cc1Cl` (stereo partly shown) [PROTAC 63], for which the IC50 in the test on VCaP cells was determined as 51 nM; with LNCaP FGC cells, 170 nM.

For the compound `N#Cc1ccc(O[C@H]2CC[C@H](NC(=O)c3ccc(N4CC(N5CCC6(CC5)COc5cc7c(cc5C6)C(=O)N(C5CCC(=O)NC5=O)C7=O)C4)nn3)CC2)cc1Cl` (stereo partly shown) [PROTAC 64, N-((1r,4r)-4-(3-chloro-4-cyanophenoxy)cyclohexyl)-6-(3-(7′-(2,6-dioxopiperidin-3-yl)-6′,8′-dioxo-4′,6′,7′,8′-tetrahydro-2′H-spiro[piperidine-4,3′-pyran[2,3-f]isoindole]-1-yl)azetidin-1-yl]pyridazine-3-carboxamide], the IC50 in the test with VCaP cells amounted to 960 nM; in the test on LNCaP FGC cells it was 130 nM.

Turning to `CC1(C)C(=O)N(c2ccc(C#N)c(C(F)(F)F)c2)C(=S)N1c1ccc(C(=O)N2CC(CN3CCC4(CCc5cc6c(cc5O4)C(=O)N(C4CCC(=O)NC4=O)C6=O)CC3)C2)c(F)c1` (stereo not shown) [PROTAC 71], the IC50 with VCaP cells was found to be 4570 nM.

`CC1(C)C(=O)N(c2ccc(C#N)c(C(F)(F)F)c2)C(=S)N1c1ccc(C(=O)N2CCC(N3CCC4(CC3)COc3cc5c(cc3C4)C(=O)N(C3CCC(=O)NC3=O)C5=O)CC2)c(F)c1` (stereo not shown) [PROTAC 78, 4-(3-(4-(4-(7′-(2,6-dioxopiperidin-3-yl)-6′,8′-dioxo-4′,6′,7′,8′-tetrahydro-2′H-spiro[piperidine-4,3′-pyrano[2,3-f]isoindol]-1-yl)piperidine-1-carbonyl)-3-fluorophenyl)-4,4-dimethyl-5-oxo-2-thioimidazolidin-1-yl)-2-(trifluoromethyl)benzonitrile] registered an IC50 in the test with VCaP cells of 2700 nM.

For the compound `CC1(C)C(=O)N(c2ccc(C#N)c(C(F)(F)F)c2)C(=S)N1c1ccc(C(=O)N2CC3(CC(N4CCC5(CC4)COc4cc6c(cc45)C(=O)N(C4CCC(=O)NC4=O)C6=O)C3)C2)c(F)c1` (stereo not shown) [PROTAC 79, 4-(3-(4-(6-(6-(2,6-dioxopiperidin-3-yl)-5,7-dioxo-6,7-dihydro-2H,5H-spiro[furo[2,3-f]isoindole-3,4′-piperidin]-1′-yl)-2-azaspiro[3.3]heptane-2-carbonyl)-3-fluorophenyl)-4,4-dimethyl-5-oxo-2-thioimidazolidin-1-yl)-2-(trifluoromethyl)benzonitrile], 4090 nM corresponded to half-maximal inhibition with VCaP cells (IC50).

Take `CC1(C)C(=O)N(c2ccc(C#N)c(C(F)(F)F)c2)C(=S)N1c1ccc(C(=O)N2CC(N3CCC4(CC3)COc3cc5c(cc34)C(=O)N(C3CCC(=O)NC3=O)C5=O)C2)c(F)c1` (stereo not shown) [PROTAC 81, 4-(3-(4-(3-(6-(2,6-dioxopiperidin-3-yl)-5,7-dioxo-6,7-dihydro-2H,5H-spiro[furo[2,3-f]isoindole-3,4′-piperidin]-1′-yl)azetidine-1-carbonyl)-3-fluorophenyl)-4,4-dimethyl-5-oxo-2-thioimidazolidin-1-yl)-2-(trifluoromethyl)benzonitrile]: inhibition in the test on VCaP cells was half-maximal at 9510 nM (IC50).

The compound `CC1(C)C(=O)N(c2ccc(C#N)c(C(F)(F)F)c2)C(=S)N1c1ccc(C(=O)N2CCC(F)(CN3CCC4(CCc5cc6c(cc5O4)C(=O)N(C4CCC(=O)NC4=O)C6=O)CC3)CC2)c(F)c1` (stereo not shown) [PROTAC 82] yielded an IC50 in the test with VCaP cells of 1300 nM.

Regarding `CC1(C)C(=O)N(c2ccc(C#N)c(C(F)(F)F)c2)C(=S)N1c1ccc(C(=O)N2CCC(CN3CCC4(CCc5cc6c(cc5O4)C(=O)N(C4CCC(=O)NC4=O)C6=O)CC3)CC2)c(F)c1` (stereo not shown) [PROTAC 84], the IC50 with VCaP cells was determined as 3800 nM.

`CC(=O)c1c(C)c2cnc(Nc3ccc(N4CCNCC4)cn3)nc2n(C2CCCC2)c1=O` [Palbociclib, reference compound] displayed an IC50 with MV-4-11 cells (setting [2]) of 2090 nM.
